{"source": "patent US20170233491A1", "about": "(Merrimack Pharmaceuticals, Inc., priority 2016, published 2017)", "key": {"[1]": {"system": "HRG mRNA expression in CFPAC-1 cells", "test": "HRG mRNA expression in CFPAC-1 cells after chemotherapy treatment", "format": "cell-based", "conditions": "FIG. 3", "procedure": "HRG mRNA expression was quantified after 24 h treatment with 1 mM of gemcitabine or 0.1 mM of paclitaxel, and normalized to housekeeping gene expression. “Vehicle”=drug-free vehicle control; “Gem”=gemcitabine treated; “Pac”=paclitaxel treated."}, "[2]": {"system": "IGF-1R and ErbB3 signaling", "test": "growth factor-induced (IGF-1, heregulin) signaling in pancreatic cancer models", "format": "cell-based", "conditions": "preclinical research"}, "[3]": {"system": "preclinical models of pancreatic cancer", "conditions": "combined with nab-paclitaxel and gemcitabine; cited from earlier work"}, "[4]": {"system": "preclinical models of pancreatic cancer", "test": "preclinical models of pancreatic cancer, combination with nab-paclitaxel and gemcitabine", "format": "in vivo", "conditions": "KRAS mutant pancreatic cancer models"}, "[5]": {"conditions": "Phase 1 study; cited from earlier work"}, "[6]": {"target": "receptor complexes containing IGF-1R and ErbB3 (Homo sapiens, UniProt P08069+P21860)", "sequence (P08069 31-736 limits assumed)": "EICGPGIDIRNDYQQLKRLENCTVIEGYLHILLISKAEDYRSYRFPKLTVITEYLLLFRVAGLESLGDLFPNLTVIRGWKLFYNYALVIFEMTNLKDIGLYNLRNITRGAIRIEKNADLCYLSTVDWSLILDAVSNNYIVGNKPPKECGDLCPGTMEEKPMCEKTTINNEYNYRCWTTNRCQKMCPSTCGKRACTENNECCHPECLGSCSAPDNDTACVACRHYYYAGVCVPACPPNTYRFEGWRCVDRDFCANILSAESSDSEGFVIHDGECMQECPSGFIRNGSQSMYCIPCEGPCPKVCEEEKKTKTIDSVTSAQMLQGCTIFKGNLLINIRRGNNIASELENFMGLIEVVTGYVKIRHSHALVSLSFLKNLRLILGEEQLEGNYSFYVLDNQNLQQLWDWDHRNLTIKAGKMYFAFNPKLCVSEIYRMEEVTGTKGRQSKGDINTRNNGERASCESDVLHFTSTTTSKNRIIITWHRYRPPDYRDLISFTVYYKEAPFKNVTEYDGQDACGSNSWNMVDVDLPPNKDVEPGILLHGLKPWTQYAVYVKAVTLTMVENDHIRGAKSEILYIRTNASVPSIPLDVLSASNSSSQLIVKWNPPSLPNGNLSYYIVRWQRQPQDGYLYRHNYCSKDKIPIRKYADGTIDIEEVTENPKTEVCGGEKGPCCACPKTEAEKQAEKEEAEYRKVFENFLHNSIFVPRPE", "sequence (P08069 741-1367 limits assumed)": "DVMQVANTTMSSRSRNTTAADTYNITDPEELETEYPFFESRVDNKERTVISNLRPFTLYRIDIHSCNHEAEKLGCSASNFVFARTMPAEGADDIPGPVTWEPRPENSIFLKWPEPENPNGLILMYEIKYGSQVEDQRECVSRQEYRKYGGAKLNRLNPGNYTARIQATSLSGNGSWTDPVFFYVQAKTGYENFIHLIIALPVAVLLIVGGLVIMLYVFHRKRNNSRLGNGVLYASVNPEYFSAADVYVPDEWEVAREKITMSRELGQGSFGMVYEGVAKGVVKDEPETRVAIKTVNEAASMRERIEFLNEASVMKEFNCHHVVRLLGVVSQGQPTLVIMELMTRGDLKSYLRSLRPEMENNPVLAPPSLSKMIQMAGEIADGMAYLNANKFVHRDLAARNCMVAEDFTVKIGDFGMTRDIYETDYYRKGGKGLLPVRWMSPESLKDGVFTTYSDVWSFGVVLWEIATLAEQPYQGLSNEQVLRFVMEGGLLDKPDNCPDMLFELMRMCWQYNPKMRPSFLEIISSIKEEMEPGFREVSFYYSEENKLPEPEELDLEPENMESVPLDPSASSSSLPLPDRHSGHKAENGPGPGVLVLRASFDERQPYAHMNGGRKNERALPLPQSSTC", "sequence (P21860 20-1342)": "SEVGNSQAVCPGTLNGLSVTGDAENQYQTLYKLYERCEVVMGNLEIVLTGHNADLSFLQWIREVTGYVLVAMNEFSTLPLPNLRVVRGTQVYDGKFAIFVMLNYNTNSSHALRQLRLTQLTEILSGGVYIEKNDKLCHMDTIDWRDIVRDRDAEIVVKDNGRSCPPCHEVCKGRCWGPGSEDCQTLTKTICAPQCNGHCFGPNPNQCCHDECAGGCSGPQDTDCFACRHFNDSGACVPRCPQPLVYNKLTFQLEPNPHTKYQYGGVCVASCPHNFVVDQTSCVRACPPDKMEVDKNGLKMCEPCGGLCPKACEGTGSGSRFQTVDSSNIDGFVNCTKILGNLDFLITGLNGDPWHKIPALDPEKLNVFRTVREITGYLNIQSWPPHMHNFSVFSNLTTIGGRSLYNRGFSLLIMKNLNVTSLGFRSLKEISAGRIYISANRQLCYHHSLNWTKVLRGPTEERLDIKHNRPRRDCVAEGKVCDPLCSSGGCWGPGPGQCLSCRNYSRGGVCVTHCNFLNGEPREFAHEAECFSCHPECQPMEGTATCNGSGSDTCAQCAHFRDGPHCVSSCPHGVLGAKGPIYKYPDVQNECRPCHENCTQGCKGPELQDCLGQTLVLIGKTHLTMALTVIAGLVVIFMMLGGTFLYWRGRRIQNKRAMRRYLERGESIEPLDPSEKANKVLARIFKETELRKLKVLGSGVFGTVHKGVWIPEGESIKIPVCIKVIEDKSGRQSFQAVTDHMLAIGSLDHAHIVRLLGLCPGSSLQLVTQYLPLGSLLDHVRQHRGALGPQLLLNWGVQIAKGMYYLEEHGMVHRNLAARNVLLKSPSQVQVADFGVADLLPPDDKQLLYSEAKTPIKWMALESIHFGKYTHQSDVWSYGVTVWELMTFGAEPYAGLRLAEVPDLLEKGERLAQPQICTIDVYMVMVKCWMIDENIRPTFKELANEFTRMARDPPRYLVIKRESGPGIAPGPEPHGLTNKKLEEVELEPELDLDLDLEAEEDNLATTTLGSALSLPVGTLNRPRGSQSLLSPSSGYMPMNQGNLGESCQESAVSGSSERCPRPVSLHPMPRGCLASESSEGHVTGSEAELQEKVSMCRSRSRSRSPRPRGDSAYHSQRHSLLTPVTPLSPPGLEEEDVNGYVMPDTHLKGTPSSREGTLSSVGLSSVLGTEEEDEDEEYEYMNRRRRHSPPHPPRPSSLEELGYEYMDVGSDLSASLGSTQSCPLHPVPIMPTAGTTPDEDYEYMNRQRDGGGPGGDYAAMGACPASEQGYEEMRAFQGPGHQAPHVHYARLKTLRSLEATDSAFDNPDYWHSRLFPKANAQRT", "conditions": "including heterodimers with insulin receptor and with ErbB2; cited from earlier work"}, "pancreatic cancer models": {"system": "pancreatic cancer models", "test": "IGF-1- and HRG-mediated insensitivity to gemcitabine or paclitaxel", "format": "cell-based", "conditions": "preclinical research"}, "[7]": {"system": "IGF-1R and ErbB3 signaling", "conditions": "background description; cited from earlier work"}}, "note": "Counter-ions that a name gives are not always drawn.", "data": [{"compound": "Nc1ccn([C@@H]2O[C@H](CO)[C@@H](O)C2(F)F)c(=O)n1", "note": "[gemcitabine, 2′-deoxy-2′,2′-difluorocytidine monohydrochloride (-isomer)]", "values": [{"measurement": "HRG mRNA expression, normalized to housekeeping gene expression", "setting": "[1]; 24 h treatment with 1 mM of gemcitabine", "value": "increases HRG mRNA expression"}]}, {"compound": "CC(=O)O[C@H]1C(=O)[C@@]2(C)[C@H]([C@H](OC(=O)c3ccccc3)[C@]3(O)C[C@H](OC(=O)[C@H](O)[C@@H](NC(=O)c4ccccc4)c4ccccc4)C(C)=C1C3(C)C)[C@]1(OC(C)=O)CO[C@@H]1C[C@@H]2O", "note": "[paclitaxel]", "values": [{"measurement": "HRG mRNA expression, normalized to housekeeping gene expression", "setting": "[1]; 24 h treatment with 0.1 mM of paclitaxel", "value": "increases HRG mRNA expression"}]}, {"compound": "Istiratumab: recombinant fully human bispecific tetravalent antibody directed at IGF-1R and ErbB3; light chain SEQ ID NO: 1, heavy chain SEQ ID NO: 2", "values": [{"measurement": "growth factor-induced survival signaling", "setting": "[2]", "value": "inhibits growth factor-induced survival signaling"}, {"measurement": "tumor regression", "setting": "[3]", "value": "significant tumor regression, including durable complete responses"}, {"measurement": "potentiation of anti-tumor activity of nab-paclitaxel/gemcitabine", "setting": "[4]", "value": "potentiates the anti-tumor activity of nab-paclitaxel/gemcitabine"}, {"measurement": "safety and tolerability", "setting": "[5]", "value": "safe and tolerable"}, {"measurement": "degradation of receptor complexes containing IGF-1R and ErbB3", "setting": "[6]", "value": "induces degradation of receptor complexes containing IGF-1R and ErbB3"}, {"measurement": "reversal of IGF-1- and HRG-mediated insensitivity to gemcitabine or paclitaxel", "setting": "pancreatic cancer models", "value": "reverses IGF-1- and HRG-mediated insensitivity to gemcitabine or paclitaxel"}, {"measurement": "IGF-1 and heregulin-induced signaling", "setting": "[7]", "value": "co-blocks IGF-1 and heregulin-induced signaling"}]}]}
